Legend:
[1] = test system: colistin resistant MCR (−) E. Cloacae strain 7023456439; experiment: MIC, broth microdilution, compound alone; format: cell-based; details: strain 7023456439 E. Cloacae
In short: (§1)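 Wells held ~5×10^5 CFU/mL of bacteria prepared to 0.5 McFarland from overnight TSA colonies and exposed to serially diluted agents, following modified CLSI microdilution. After 24 h at 35 °C, growth judged by turbidity (OD600 possible); 99% inhibition sets the MIC.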

[2] = test system: colistin resistant MCR (−) E. Coli strains; experiment: MIC, broth microdilution, compound alone; format: cell-based
In short: as §1

[3] = test system: PAE strains (CRE strains, colistin sensitive); experiment: MIC of polymyxin B or colistin alone (Table 4); format: cell-based, P. aeruginosa; design: unit: μg/mL
Method: (§2) MIC experiments of the antimicrobial agents were determined by a modified broth microdilution method in accordance with the Clinical and Laboratory Standards Institute (CLSI) guidelines using 96 well culture plates. In brief, serial dilutions of all plates were prepared at different concentrations (μg). The inoculum suspension was prepared by adding isolated colonies from a 18-20 hours on TSA plate into phosphate buffer (0.31 mM, pH 7.2) or in water for injection (BBraun) and adjusting the suspension to a turbidity equivalent to 0.5 McFarland Standard. Each well contained a final bacterial concentration of approximately 5×10^5 colony forming units (CFU)/mL. The plate was covered and incubated at 35° C. for 24 hours. […] For the microdilution plates, turbidity in wells can be measured at OD600 using TECAN infinite M200Pro. MIC was determined as […] concentration that gives a 99 percent inhibition.

[4] = test system: ACBA multi-drug resistant strains; experiment: Synergy of LC100 with colistin against multi-drug resistant strains (Table 5); format: cell-based, Acinetobacter baumannii
Method: The MICs of the individual drugs and LC compound in combinations were determined using the broth microdilution technique as recommended by the CLSI whereby the two anti-microbial agents were added in an equal amount. (e.g.: 50 μL of Colistin: 50 μL of LC compounds). Diluted media containing compounds and antibiotics will be serially diluted 2-fold, and LC compounds and antibiotics alone or in combination will be assayed at fixed synergy concentration. In all cases, the lowest concentration at which no visible growth occurred was be recorded to be the MIC value of individual and combined antibacterial agents. The results were obtained after 24 hours of incubation.

[5] = test system: Gram positive bacteria (SA and MRSA strains); experiment: Antimicrobial effect on Gram positive bacteria (Table 8); format: cell-based; design: key to antimicrobial effect on Gram positive bacteria: MIC (concentration giving 99% inhibition), concentrations in μg; details: compound alone
Method: as §2
The antimicrobial activity of the inventive combination was also tested against Gram positive bacteria, including the multi-drug resistant strains, such as MRSA. […] This means the combination of LC100/LC101 with colistin has broad antimicrobial spectrum, being active against both Gram positive and Gram negative bacteria.

Colistin
MIC [1]: 100 µg/mL | MIC ([2]; strain 6083672926, MCR (−)): 12.5 µg/mL | MIC ([2]; strain 7023446108, MCR (−)): 6.25 µg/mL | MIC ([2]; strain 7033607097, MCR (−)): 6.25 µg/mL | MIC (antibiotic alone) ([3]; strain PAE 4877): 1.56 | MIC (antibiotic alone) ([3]; strain PAE 5790): 1.56 | MIC (antibiotic alone) ([3]; strain PAE 14476): 1.56

CCN(CC)CCCCOc1ccc(/C=C/C(=O)c2ccc(OCCCCN(CC)CC)c(CC=C(C)C)c2O)cc1 [LC100]
Colistin MIC in the presence of LC100 ([4]; strain ACBA 1010, LC 100 2 μg): <0.0975 µg/mL | Colistin MIC in the presence of LC100 ([4]; strain ACBA 1010, LC 100 5 μg): <0.0975 µg/mL | Colistin MIC in the presence of LC100 ([4]; strain ACBA 1012, LC 100 2 μg): 0.39 µg/mL | Colistin MIC in the presence of LC100 ([4]; strain ACBA 1012, LC 100 5 μg): <0.0975 µg/mL | Colistin MIC in the presence of LC100 ([4]; strain ACBA 43357, LC 100 2 μg): 0.39 µg/mL | Colistin MIC in the presence of LC100 ([4]; strain ACBA 43357, LC 100 5 μg): <0.0975 µg/mL | Colistin MIC in the presence of LC100 ([4]; strain ACBA ATCC 19606, LC 100 2 μg): 0.195 µg/mL | Colistin MIC in the presence of LC100 ([4]; strain ACBA ATCC 19606, LC 100 5 μg): <0.0975 µg/mL | activity against Gram positive strains ([5]; in words): good activity | antimicrobial effect on Gram positive bacteria ([5]; strain MRSA ATCC 43300): 3.125 | antimicrobial effect on Gram positive bacteria ([5]; strain MRSA ATCC 700699): 3.125 | antimicrobial effect on Gram positive bacteria ([5]; strain MRSA DM 21455): 3.125 | antimicrobial effect on Gram positive bacteria ([5]; strain SA ATCC 6538): 3.125 | antimicrobial effect on Gram positive bacteria ([5]; strain SA ATCC 29213): 3.125 | antimicrobial effect on Gram positive bacteria ([5]; strain SA DM 4400R): 3.125

Source: patent US12473250B2, “Molecular design of new antibiotics and antibiotic adjuvants against MCR strains” (priority 2019, dated 2025)
